Calls of active or inactive are those of the source. No cut-off for these calls is given here.
Experiments:
Mus musculus [1] = assay: Anticonvulsant activity in Mus musculus (mouse) assessed as protection against subcutaneous pentyleneterazole-induced seizure at 300 mg/kg, ip measured after 4 hr; assay type: functional, organism-based; design: dose 300 mg/kg
Rattus norvegicus = assay: CNS depressant activity in Rattus norvegicus Wistar (rat) assessed as immobility time at 100 mg/kg, ip measured after 60 min by forced swim test (reference value: 45.6 +/- 19.45 to 180.97 +/- 14.15 sec); assay type: functional; conditions: route intraperitoneal
Mus musculus [2] = assay: Sedative-hypnotic activity in Mus musculus (mouse) assessed as inhibition of locomotory activity at 100 mg/kg, ip measured after 1 hr by actophotometer test; assay type: functional; conditions: route intraperitoneal
[3] = (§1) Neurotoxicity in ip dosed Mus musculus (mouse) after 4 hr by rotorod test; assay type: toxicity, organism-based; conditions: in vivo
[4] = (§2) Neurotoxicity in ip dosed Mus musculus (mouse) after 0.5 hr by rotorod test; assay type: toxicity, organism-based; conditions: in vivo
Mus musculus [5] = assay: Anticonvulsant activity in Mus musculus (mouse) assessed as protection against subcutaneous pentyleneterazole-induced seizure at 300 mg/kg, ip measured after 0.5 hr; assay type: functional, organism-based; design: dose 300 mg/kg
Mus musculus [6] = assay: Anticonvulsant activity in Mus musculus (mouse) assessed as protection against maximal electroshock-induced seizure at 300 mg/kg, ip measured after 4 hr; assay type: functional, organism-based; design: dose 300 mg/kg
Mus musculus [7] = assay: Anticonvulsant activity in Mus musculus (mouse) assessed as protection against maximal electroshock-induced seizure at 300 mg/kg, ip measured after 0.5 hr; assay type: functional, organism-based; design: dose 300 mg/kg
Mus musculus [8] = assay: Anticonvulsant activity in ip dosed Mus musculus (mouse) assessed as protection against subcutaneous pentyleneterazole-induced seizure measured after 0.5 hr; assay type: functional; conditions: read-out: MED
Mus musculus [9] = assay: as §1; assay type: toxicity, organism-based; conditions: in vivo, 4 h
Mus musculus [10] = assay: as §2; assay type: toxicity, organism-based; conditions: in vivo, 0.5 h
Mus musculus [11] = assay: Anticonvulsant activity in ip dosed Mus musculus (mouse) assessed as protection against subcutaneous pentyleneterazole-induced seizure measured after 4 hr; assay type: functional; conditions: read-out: MED
Mus musculus [12] = assay: Anticonvulsant activity in ip dosed Mus musculus (mouse) assessed as protection against maximal electroshock-induced seizure measured after 4 hr; assay type: functional; conditions: read-out: MED
Mus musculus [13] = assay: Anticonvulsant activity in ip dosed Mus musculus (mouse) assessed as protection against maximal electroshock-induced seizure measured after 0.5 hr; assay type: functional; conditions: read-out: MED

Row | Compound | Activity (Mus musculus [1]) | Time (Rattus norvegicus) [s] | inhibition in vivo at 100 mg/kg (Mus musculus [2]) [%] | MTD at 4 h [3] [mg/kg] | MTD at 0.5 h [4] [mg/kg] | Activity (Mus musculus [5]) | Activity (Mus musculus [6]) | Activity (Mus musculus [7]) | minimal effective dose (Mus musculus [8]) [mg/kg] | MTC (Mus musculus [9]) [mg/kg] | MTC (Mus musculus [10]) [mg/kg] | minimal effective dose (Mus musculus [11]) [mg/kg] | minimal effective dose (Mus musculus [12]) [mg/kg] | minimal effective dose (Mus musculus [13]) [mg/kg]
1 | Cc1ccc(NC(=O)Nn2c(C)nc3ccccc3c2=O)cc1 | inactive | 210.29 | 52 | 300 | 300 | inactive | inactive | inactive | – | – | – | – | – | –
2 | Cc1ccccc1NC(=O)Nn1c(C)nc2ccccc2c1=O | inactive | 226.29 | 51 | 300 | 300 | inactive | inactive | inactive | – | – | – | – | – | –
3 | CCCC(CCC)C(=O)[O-].[Na+] [VALPROATE SODIUM] | inactive | – | – | 300 | 300 | – | inactive | inactive | 300 | – | – | – | – | –
4 | CCC1(C)CC(=O)NC1=O (stereo unspecified) [ETHOSUXIMIDE] | inactive | – | – | – | – | – | inactive | inactive | 300 | – | – | – | – | –
5 | NC(=O)N1c2ccccc2C=Cc2ccccc21 [CARBAMAZEPINE] | – | 240.3 | – | – | – | – | – | – | 100 | 300 | 100 | 300 | 100 | 30
6 | Cc1nc2ccccc2c(=O)n1NC(=O)Nc1ccc(Cl)cc1 | inactive | 204.7 | 48 | – | – | – | inactive | – | 300 | 300 | 300 | – | – | 300
7 | Cc1nc2ccccc2c(=O)n1NC(=O)Nc1ccc(I)cc1 | inactive | 194.05 | 53 | 300 | 300 | inactive | inactive | inactive | – | – | – | – | – | –
8 | O=C1NC(=O)C(c2ccccc2)(c2ccccc2)N1 [PHENYTOIN] | inactive | – | 70 | – | – | inactive | – | – | – | 100 | 100 | – | 30 | 30
9 | Cc1nc2ccccc2c(=O)n1NC(=O)Nc1ccc(Br)cc1 | inactive | 70.63 | 51 | 300 | – | – | inactive | – | 300 | – | 300 | – | – | 300
10 | COc1ccc(NC(=O)Nn2c(C)nc3ccccc3c2=O)cc1 | inactive | 202.29 | 42 | 300 | 300 | inactive | inactive | inactive | – | – | – | – | – | –
11 | Cc1cccc(NC(=O)Nn2c(C)nc3ccccc3c2=O)c1 | inactive | 218.29 | 51 | 300 | 300 | inactive | inactive | inactive | – | – | – | – | – | –
12 | CCOc1ccc(NC(=O)Nn2c(C)nc3ccccc3c2=O)cc1 | inactive | 198.29 | 45 | – | – | inactive | inactive | inactive | – | 300 | 300 | – | – | –
13 | Cc1nc2ccccc2c(=O)n1NC(=O)Nc1ccc(F)cc1 | inactive | 188.16 | 45 | 300 | 300 | inactive | inactive | inactive | – | – | – | – | – | –
14 | Cc1nc2ccccc2c(=O)n1NC(=O)Nc1ccccc1 | inactive | 130.56 | 50 | 300 | – | inactive | inactive | inactive | – | – | 300 | – | – | –
15 | CCc1ccc(NC(=O)Nn2c(C)nc3ccccc3c2=O)cc1 | inactive | 208.29 | 53 | 300 | 300 | – | – | – | 300 | – | – | – | 300 | 300
16 | Cc1nc2ccccc2c(=O)n1NC(=O)Nc1ccc([N+](=O)[O-])cc1 | inactive | 190.29 | 40 | 300 | 300 | inactive | inactive | inactive | – | – | – | – | – | –
17 | CCC1(c2ccccc2)C(=O)NC(=O)NC1=O [PHENOBARBITAL] | – | – | – | – | – | – | – | – | 30 | 300 | 100 | 300 | 30 | 100
